Experimental findings from PubChem BioAssay (NCI) are described below.

Some test systems named below: UO-31 renal; HCC-2998 colon; OVCAR-5 ovarian; NCI-H460 lung; U251 CNS; UACC-62 melanoma; SK-OV-3 ovarian; HOP-62 NSCLC; CAKI-1 renal; A498 renal.
Holding throughout (experiment): inhibition of tumour cell growth, NCI panel, 48 h

SMILES strings stand for the structures.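 Protocol summary: plate cells (96-well), add compound at 5 concentrations, incubate 48 h, interpolate endpoints linearly. GI50 is the concentration that inhibits growth by half. Definition used: TGI = concentration required for complete inhibition of growth.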

As for `CC1C[C@]2(C[C@@H](C)C(=O)O2)O[C@@H]2CC3(C)[C@@H]4CCC5C(C)(C)OC(=O)C[C@H]6OO[C@]4(CC[C@]3(C)C12)CC56O` (stereo not given in full), the TGI with UO-31 renal, in the experiment on HCC-2998 colon, with OVCAR-5 ovarian, in the experiment on NCI-H460 lung, in the experiment with U251 CNS and with UACC-62 melanoma was over 100 µM throughout. Besides, in the experiment with SK-OV-3 ovarian, the TGI was over 100 µM.

`C/C(=N\NC(=S)N1CCCCCCCCCCCC1)c1ccccn1`: the TGI in the experiment with UO-31 renal turned out to be 1.77 µM; in the experiment on HCC-2998 colon, 1.63 µM; with HOP-62 NSCLC, 1.36 µM; with CAKI-1 renal it was 1.15 µM; in the experiment with OVCAR-5 ovarian, 2.2 µM; in the experiment with A498 renal, 1.32 µM. In addition, the TGI turned out to be 1.43 µM in the experiment on NCI-H460 lung and 0.28 µM with U251 CNS.

As to `CCOC(=O)c1c(C)nc2c(c1N)CC(=O)N2CCc1ccccc1`, the GI50 in the experiment on UO-31 renal was 1.03 µM; with HCC-2998 colon, 3.49 µM; in the experiment with HOP-62 NSCLC it was 0.472 µM; with OVCAR-5 ovarian, 8.2 µM; in the experiment on A498 renal, 3.2 µM; in the experiment on NCI-H460 lung, 1.77 µM. The GI50 was 0.997 µM in the experiment with U251 CNS, 0.629 µM in the experiment on UACC-62 melanoma and 8.46 µM in the experiment on SK-OV-3 ovarian. Also, the TGI with UO-31 renal stood at 21.9 µM; in the experiment with HCC-2998 colon it was 12.8 µM; with HOP-62 NSCLC, 14.7 µM; in the experiment with OVCAR-5 ovarian, 24.9 µM; in the experiment on A498 renal, 10.8 µM; in the experiment with NCI-H460 lung it was 14.1 µM. Also, the TGI in the experiment on U251 CNS was 18.4 µM; with UACC-62 melanoma, 17.2 µM; in the experiment with SK-OV-3 ovarian, 36.7 µM.

As to `Cc1ccn2c(CCc3nnc4cc(C)ccn34)nnc2c1`, the TGI in the experiment with UO-31 renal, in the experiment with HOP-62 NSCLC, in the experiment with CAKI-1 renal, in the experiment on OVCAR-5 ovarian, in the experiment with A498 renal and in the experiment on NCI-H460 lung was over 100 µM in each case. For the same molecule, the TGI in the experiment on U251 CNS, in the experiment on UACC-62 melanoma and in the experiment on SK-OV-3 ovarian was over 100 µM each time.

As for `CN1CCN(c2nc(NCCCNc3ccnc4cc(Cl)ccc34)c3ccccc3n2)CC1`, the GI50 with UO-31 renal was 2.09 µM; in the experiment with HCC-2998 colon, 3 µM; with HOP-62 NSCLC it was 2.81 µM; with OVCAR-5 ovarian, 4.17 µM; with A498 renal, 12.9 µM; in the experiment with NCI-H460 lung, 3.53 µM. The results for the GI50 in the experiment on U251 CNS, with UACC-62 melanoma and in the experiment with SK-OV-3 ovarian were 3.39 µM, 1.95 µM and 6.46 µM, respectively. Moreover, the TGI in the experiment with UO-31 renal stood at 5.93 µM; in the experiment on HCC-2998 colon, 12.5 µM; in the experiment on HOP-62 NSCLC it was 11.6 µM; in the experiment with OVCAR-5 ovarian, 19.1 µM; in the experiment on A498 renal, 25.6 µM; in the experiment on NCI-H460 lung, 13.4 µM. Also, the TGI was 10.3 µM in the experiment on U251 CNS, 3.86 µM in the experiment with UACC-62 melanoma and 22.5 µM in the experiment on SK-OV-3 ovarian.

For `C=C1C2CC(OC(C)=O)C3(C)C(c4ccoc4)OC(=O)[C@@H](O)[C@]13OC1C[C@H](OC(C)=O)C(C)(C)[C@H](CC(=O)OC)[C@]12C` (stereo not given in full), the TGI in the experiment on UO-31 renal, in the experiment on HCC-2998 colon, in the experiment with A498 renal, with NCI-H460 lung, in the experiment on U251 CNS and in the experiment on UACC-62 melanoma was over 100 µM throughout. Further, the TGI with SK-OV-3 ovarian is over 100 µM.

Consider `C=C(CC(=O)O)C(=O)O` (tested in a mixture with another compound), for which the GI50 with UO-31 renal, in the experiment on HOP-62 NSCLC, with CAKI-1 renal, in the experiment with OVCAR-5 ovarian, with A498 renal and in the experiment with NCI-H460 lung was over 50 µg/mL throughout. Further, the GI50 in the experiment with U251 CNS, with UACC-62 melanoma and with SK-OV-3 ovarian was over 50 µg/mL each time. In addition, the TGI with UO-31 renal, in the experiment with HOP-62 NSCLC, in the experiment with CAKI-1 renal, in the experiment with OVCAR-5 ovarian, with A498 renal and with NCI-H460 lung was over 50 µg/mL throughout. Further, the TGI in the experiment on U251 CNS, in the experiment with UACC-62 melanoma and with SK-OV-3 ovarian was over 50 µg/mL throughout.

As to `Oc1cccc(/C=N/Nc2nnc(N/N=C/c3cccc(O)c3)c3ccccc23)c1`, the TGI in the experiment on UO-31 renal was 52 µM; in the experiment with HOP-62 NSCLC, 33 µM; in the experiment with CAKI-1 renal, 83.3 µM; with OVCAR-5 ovarian, over 100 µM; in the experiment on NCI-H460 lung, over 100 µM; in the experiment on U251 CNS it was 29.6 µM. Moreover, the TGI was 30.2 µM in the experiment on UACC-62 melanoma and over 100 µM with SK-OV-3 ovarian.

Regarding `NC(N)=Nc1nc2ccc([N+](=O)[O-])cc2[nH]1`, the TGI with UO-31 renal, in the experiment on HOP-62 NSCLC, with CAKI-1 renal, in the experiment with OVCAR-5 ovarian, in the experiment on A498 renal and in the experiment on NCI-H460 lung was over 100 µM in each case. For the same molecule, the TGI in the experiment with U251 CNS, in the experiment with UACC-62 melanoma and in the experiment with SK-OV-3 ovarian was over 100 µM each time.

As to `CCCCc1n(Cc2ccc3ccccc3c2)cc[n+]1Cc1ccc2ccccc2c1`, the GI50 in the experiment on UO-31 renal was 1.45 µM; in the experiment on OVCAR-5 ovarian, 1.28 µM; in the experiment with UACC-62 melanoma, 0.705 µM; in the experiment on SK-OV-3 ovarian, 1.38 µM. The TGI with UO-31 renal turned out to be 2.96 µM; in the experiment on OVCAR-5 ovarian, 2.63 µM; in the experiment with UACC-62 melanoma it was 2.08 µM; in the experiment on SK-OV-3 ovarian, 2.75 µM.

For the molecule `COc1ccc2c(c1)[n+]([O-])c(-c1ccc(C)cc1)c(N)[n+]2[O-]`, the TGI in the experiment with UO-31 renal, with HOP-62 NSCLC, in the experiment on CAKI-1 renal, in the experiment on OVCAR-5 ovarian, in the experiment with A498 renal and in the experiment with NCI-H460 lung was over 100 µM each time. The TGI with U251 CNS and in the experiment with SK-OV-3 ovarian was over 100 µM in each case.

As for `CC12CO[C@@](C)(CC(S(=O)(=O)c3ccccc3)C1)O2` (stereo not given in full), the TGI with UO-31 renal, with HCC-2998 colon, with HOP-62 NSCLC, with OVCAR-5 ovarian, in the experiment on NCI-H460 lung and with U251 CNS was over 100 µM each time. In addition, the TGI with UACC-62 melanoma and in the experiment with SK-OV-3 ovarian was over 100 µM each time.

Take `CCN(CC)C(=O)N1CCN(C=S)CC1`: the TGI in the experiment with UO-31 renal, with HCC-2998 colon, with HOP-62 NSCLC, in the experiment on OVCAR-5 ovarian, in the experiment with A498 renal and in the experiment with NCI-H460 lung was over 100 µM in each case. Further, the TGI in the experiment on U251 CNS, in the experiment on UACC-62 melanoma and in the experiment on SK-OV-3 ovarian was over 100 µM throughout.
